The values below come from patent US20120202690A1, “HERBICIDAL COMPOUNDS” (SYNGENTA LIMITED, priority 2009, published 2012).

Type in all cases: in vivo
Assay [1] relates to Ipomoea hederaceae (IPOHE). Nature of the assay: Post-emergence biological efficacy, glasshouse, 500 or 1000 g/ha, evaluated after 13 days (100=total damage to plant; 0=no damage to plant). Conditions: rate 1,000 g/ha; for pest or weed control at 1000 g/ha: Ipomoea, 312 h, read-out: Percentage damage caused to weed species, post-emergence, IPOHE. Put shortly: (§1)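 Damage is scored on pot-grown plants, sown in standard soil and sprayed after emergence, that were held post-treatment in a glasshouse (24/16° C. day/night, 14 hours light, 65% humidity).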

Assay [2] relates to Setaria faberi (SETFA). Described as above. The settings on record: rate 1,000 g/ha; for pest or weed control at 1000 g/ha: Setaria faberi, 312 h, read-out: Percentage damage caused to weed species, post-emergence, SETFA. In outline:
as §1

Assay [3] relates to Solanum nigrum (SOLNI). The assay is described as above. The settings on record: rate 1,000 g/ha; for pest or weed control at 1000 g/ha: Solanum nigrum, 312 h, read-out: Percentage damage caused to weed species, post-emergence, SOLNI. In outline: as §1
Assay [4] relates to Amaranthus retroflexus (AMARE). Described as above. The settings on record: rate 1,000 g/ha; for pest or weed control at 1000 g/ha: Amaranthus retroflexus, 312 h, read-out: Percentage damage caused to weed species, post-emergence, AMARE. In outline:
as §1

For assay [5], the system named is Echinochloa crusgaffi (ECHCG). The description is as above. The settings on record: rate 1,000 g/ha; for pest or weed control at 1000 g/ha: Echinochloa, 312 h, read-out: Percentage damage caused to weed species, post-emergence, ECHCG. Put shortly: as §1
Assay [6] concerns Alopecurus myosuroides (ALOMY). Described as above. Conditions: rate 1,000 g/ha; for pest or weed control at 1000 g/ha: Alopecurus myosuroides, 312 h, read-out: Percentage damage caused to weed species, post-emergence, ALOMY. Put shortly:
as §1

In assay [7] the test system is Ipomoea hederaceae (IPOHE). Briefly: Pre-emergence biological efficacy, glasshouse, 1000 g/ha, evaluated after 13 days (100=total damage to plant; 0=no damage to plant). Conditions: rate 1,000 g/ha; for pest or weed control at 1000 g/ha: Ipomoea, 312 h, read-out: Percentage damage caused to weed species, pre-emergence, IPOHE. Put shortly: (§2)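 Seeds were sown in standard soil in pots, then grown in a controlled glasshouse at 24/16° C. day/night, 14 hours light and 65% humidity, with watering twice daily.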

Assay [8] relates to Echinochloa crus-galli (ECHCG). The assay is described as above. The settings on record: rate 1,000 g/ha; for pest or weed control at 1000 g/ha: Echinochloa crus-galli, 312 h, read-out: Percentage damage caused to weed species, pre-emergence, ECHCG. In outline: as §2
The subject of assay [9] is Setaria faberi (SETFA). Described as above. The settings on record: rate 1,000 g/ha; for pest or weed control at 1000 g/ha: Setaria faberi, 312 h, read-out: Percentage damage caused to weed species, pre-emergence, SETFA. In outline:
as §2

Assay [10] has as its system Solanum nigrum (SOLNI). The assay is described as above. The settings on record: rate 1,000 g/ha; for pest or weed control at 1000 g/ha: Solanum nigrum, 312 h, read-out: Percentage damage caused to weed species, pre-emergence, SOLNI. In outline:
as §2

In assay [11] the test system is Amaranthus retroflexus (AMARE). The assay is described as above. Conditions: rate 1,000 g/ha; for pest or weed control at 1000 g/ha: Amaranthus retroflexus, 312 h, read-out: Percentage damage caused to weed species, pre-emergence, AMARE. Put shortly:
as §2

The subject of assay [12] is Alopecurus myosuroides (ALOMY). The description is as above. The settings on record: rate 1,000 g/ha; for pest or weed control at 1000 g/ha: Alopecurus myosuroides, 312 h, read-out: Percentage damage caused to weed species, pre-emergence, ALOMY. In outline: as §2

Consider `O=C(O)c1nc(-c2ccc(Cl)c(F)c2)nc2c1ccn2Cc1ccccc1` [Compound 6-17, 4-Carboxy-2-(4-chloro-3-fluorophenyl)-7-phenylmethyl-7H-pyrrolo[2,3-d]pyrimidine], for which the pest or weed control at 1000 g/ha in assay [1] stood at 0%; in [2], 0%; in [3], 40%; in [4], 20%; in [5], 0%; in [6], 0%. The pest or weed control at 1000 g/ha in assay [7], in assay [8], in assay [9], in assay [10], in [11] and in assay [12] was 0% in each case.
In the case of `COc1c(Cl)ccc(-c2nc(C(=O)O)c3c(C)cn(Cc4ccc(C(F)(F)F)o4)c3n2)c1F` [Compound 12-63, 4-Carboxy-2-(4-chloro-2-fluoro-3-methoxyphenyl)-7-(5-trifluoromethyl-furan-2-yl-methyl)-5-methyl-7H-pyrrolo[2,3-d]pyrimidine], the pest or weed control at 1000 g/ha amounted to 50% in assay [1]; 0% in assay [2]; 70% in assay [3]; 30% in assay [4]; 0% in assay [5]; 0% in [6]. Further, the pest or weed control at 1000 g/ha in assay [7] is 10%; in [8], 0%; in assay [9], 20%; in [10], 0%; in [11] it was 60%; in assay [12], 0%.
Take `COC(=O)c1nc(-c2ccc(Cl)c(OC)c2F)nc2c1cc(C)n2CC1CC1` [Compound 5-66, 2-(4-Chloro-2-fluoro-3-methoxyphenyl)-7-cyclopropylmethyl-4-methoxycarbonyl-6-methyl-7H-pyrrolo[2,3-d]pyrimidine]: the pest or weed control at 1000 g/ha in [1] is 0%; in [2], 20%; in [3], 20%; in [4], 0%; in [5] it was 10%; in [6], 10%. Also, the pest or weed control at 1000 g/ha in assay [7], in [8], in assay [9], in assay [10], in assay [11] and in assay [12] was 0% in each case.
On to `C=CCOC(=O)c1nc(-c2ccc(Cl)c(OC)c2F)nc2[nH]cc(C)c12` [Compound 1-80, 2-(4-Chloro-2-fluoro-3-methoxyphenyl)-5-methyl-4-(prop-2-enyloxycarbonyl)-7H-pyrrolo[2,3-d]pyrimidine], for which the pest or weed control at 1000 g/ha amounted to 40% in [1]; 0% in [2]; 80% in [3]; 60% in assay [4]; 10% in [5]; 0% in assay [6]. Besides, the pest or weed control at 1000 g/ha in assay [7], in [8], in [9], in [10], in assay [11] and in assay [12] was 0% in each case.
In the case of `Cc1cc2c(C(=O)O)nc(-c3ccc(Cl)c(F)c3)nc2n1CC1CC1` [Compound 5-21, 4-Carboxy-2-(4-chloro-3-fluorophenyl)-7-cyclopropylmethyl-6-methyl-7H-pyrrolo[2,3-d]pyrimidine], the pest or weed control at 1000 g/ha was determined as 30% in assay [1]; 10% in assay [2]; 50% in assay [3]; 70% in assay [4]; 10% in assay [5]; 10% in [6]. The pest or weed control at 1000 g/ha came out at 30% in assay [7]; 0% in [8]; 10% in assay [9]; 40% in assay [10]; 100% in assay [11]; 10% in assay [12].
Turning to `COc1c(Cl)ccc(-c2nc(C(=O)O)c3c(n2)N(C)CCN3C)c1F` [Compound 92-163, 4-Carboxy-2-(4-chloro-2-fluoro-3-methoxyphenyl)-5,8-dimethyl-5,6,7,8-tetrahydropteridine], the pest or weed control at 1000 g/ha in assay [1] is 10%; in assay [2] it was 10%; in [3], 10%; in assay [4] it was 0%; in [5] it was 10%; in assay [6] it was 10%. In addition, the pest or weed control at 1000 g/ha in assay [7], in [8], in assay [9], in assay [10], in assay [11] and in [12] was 0% throughout.
`COc1c(Cl)ccc(-c2nc(C(=O)OCc3ccco3)c3c(C)c[nH]c3n2)c1F` [Compound 1-87, 2-(4-Chloro-2-fluoro-3-methoxyphenyl)-4-(2-furanyl-methoxycarbonyl)-5-methy-7H-pyrrolo[2,3-d]pyrimidine]: the “Percentage damage caused to weed species, post-emergence, IPOHE” value in assay [1] was 50%. Further, the “Percentage damage caused to weed species, post-emergence, SETFA” value in [2] amounted to 10%. Further, the “Percentage damage caused to weed species, post-emergence, SOLNI” value in [3] was 90%. For the same molecule, the “Percentage damage caused to weed species, post-emergence, AMARE” value in assay [4] worked out at 100%. For the same molecule, the “Percentage damage caused to weed species, post-emergence, ECHCG” value in assay [5] was determined as 0%. Moreover, the “Percentage damage caused to weed species, post-emergence, ALOMY” value in [6] came to 0%. Further, the “Percentage damage caused to weed species, pre-emergence, IPOHE” value in assay [7] came to 10%. Besides, the “Percentage damage caused to weed species, pre-emergence, ECHCG” value in assay [8] was 0%. Further, the “Percentage damage caused to weed species, pre-emergence, SETFA” value in assay [9] is 0%. Further, in assay [10], the “Percentage damage caused to weed species, pre-emergence, SOLNI” value is recorded as 20%. The “Percentage damage caused to weed species, pre-emergence, AMARE” value in assay [11] worked out at 10%. Further, in assay [12], the “Percentage damage caused to weed species, pre-emergence, ALOMY” value was determined as 0%.
Consider `COc1c(Cl)ccc(-c2nc3c(c(C(=O)O)n2)N[C@@H]2CCCC[C@H]2N3)c1F` [Compound 91-207, (5aR,9aR)-4-Carboxy-2-(4-chloro-2-fluoro-3-methoxyphenyl)-5,5a,6,7,8,9,9a,10-octahydro-benzo[g]pteridine], for which the pest or weed control at 1000 g/ha came to 60% in [1]; 0% in [2]; 70% in [3]; 20% in assay [4]; 0% in assay [5]; 0% in assay [6]. For the same molecule, the pest or weed control at 1000 g/ha in [7] was found to be 0%; in assay [8], 0%; in assay [9] it was 10%; in assay [10], 10%; in assay [11], 20%; in assay [12], 0%.
On to `COc1c(Cl)ccc(-c2nc(C(=O)OC(C)C)c3c(C)c[nH]c3n2)c1F` [Compound 1-78, 2-(4-Chloro-2-fluoro-3-methoxyphenyl)-4-isopropoxycarbonyl-5-methyl-7H-pyrrolo[2,3-d]pyrimidine], for which the pest or weed control at 1000 g/ha in assay [1] was 70%; in [2], 0%; in assay [3], 60%; in [4] it was 0%; in assay [5] it was 0%; in [6] it was 0%. Further, the pest or weed control at 1000 g/ha worked out at 20% in assay [7]; 0% in assay [8]; 0% in assay [9]; 40% in assay [10]; 50% in assay [11]; 0% in [12].
